Experiment [1] deals with focal adhesion kinase (FAK) (Homo sapiens, UniProt Q05397). Kind of experiment: FAK kinase assay (autophosphorylation), 384-well flashplate. Particulars: FAK inhibition, enzymatic autophosphorylation assay, 1 μM ATP. Type of experiment: biochemical. Here is the method: FAK Kinase Assay (Autophosphorylation)
The focal adhesion kinase (FAK) assay is carried out either as a 384-well flashplate assay (for example for Topcount measurements) or as a 384-well image flashplate assay (for LEADseeker measurements). 2 nM FAK, 400 nM biotinylated substrate (His-TEV-hsFAK (31 686)(K454R) x biotin) and 1 μM ATP (to which […] of 33P-ATP/well has been added) are incubated at 30° C. for 2 hours with or without test compound in a total volume of 50 μl (60 mM Hepes, 10 mM MgCl2, 1.2 mM dithiothreitol, 0.02% of Brij35, 0.1% of BSA, pH 7.5). The reaction is stopped using 25 μl of 200 mM EDTA. After 30 min at 30° C., the liquid is removed, and each well is washed three times with 100 μl of 0.9% sodium chloride solution. Non-specific reaction is determined in the presence of 1 μM EMD 1076893/0(PF-562271). The radioactivity is measured using Topcount (in the case of the use of flashplates) or using LEADseeker (in the case of the use of image flashplates). Results (for example IC50 values) are calculated using, for example, a Symyx Assay Explorer.

Another experiment has as its target T1, FAK (Homo sapiens, UniProt Q05397).
T1 construct: HT29 cells are sown out with 30,000 cells per well; endogenous in cells; host or cells: HT29
Kind of experiment: Cellular testing of FAK kinase inhibitors: autophosphorylation of FAK at tyrosine 397 in HT29 cells (Luminex). Type of experiment: cell-based. Conditions: FAK inhibition, P-Y397-FAK in HT29 cells, 30 min, serum-free. Here is the method:
Method for the Cellular Testing of FAK Kinase Inhibitors
For analysis of the cellular activity of FAK, the extent of autophosphorylation of FAK at tyrosine 397 is determined with the aid of a Luminex-based assay in the 96-well format. HT29 cells are sown out with 30,000 cells per well in 100 μl of medium (90% of DMEM/10% of FCS) and incubated on the following day for 30 min with a serial dilution of the test substance (7 concentrations) under serum-free conditions. The cells are subsequently lysed using 90 μl of lysis buffer (20 mM tris/HCl pH 8.0, 150 mM NaCl, 1% of NP40, 10% of glycerol, 1% of phosphatase inhibitor II, 20 mM p-glycerol phosphate, 0.1% of protease inhibitor cocktail III, 0.01% of benzonase) per well, and the lysates are separated off from insoluble cell constituents by means of centrifugation through a 96-well filter plate (0.65 μm). The lysates are incubated at 4° C. overnight with shaking with Luminex beads to which an anti-total FAK antibody is coupled. The detection is carried out on the following day by addition of a P-Y397-FAK antibody and a species-specific PE-labelled secondary antibody. P-Y397-FAK is detected by measurement in the Luminex100 instrument by determination of 100 events per cavity in a measurement time of 60 sec. As pharmacological blank, the signals obtained from cells treated with 30 μM of an FAK reference inhibitor are subtracted from all other batches. The control value used for maximum phosphorylation of FAK at Y397 are the signals from cells treated only with the solvent (0.3% of DMSO). The values of the batches treated with test substance are calculated therefrom as percent of control, and IC50 values are determined by means of Assay Explorer.

One may read the IC50 as the concentration that inhibits the measured activity by half. Read a low IC50 as higher potency.

Each structure is given as a SMILES string.

T1 sequence (Q05397 whole entry): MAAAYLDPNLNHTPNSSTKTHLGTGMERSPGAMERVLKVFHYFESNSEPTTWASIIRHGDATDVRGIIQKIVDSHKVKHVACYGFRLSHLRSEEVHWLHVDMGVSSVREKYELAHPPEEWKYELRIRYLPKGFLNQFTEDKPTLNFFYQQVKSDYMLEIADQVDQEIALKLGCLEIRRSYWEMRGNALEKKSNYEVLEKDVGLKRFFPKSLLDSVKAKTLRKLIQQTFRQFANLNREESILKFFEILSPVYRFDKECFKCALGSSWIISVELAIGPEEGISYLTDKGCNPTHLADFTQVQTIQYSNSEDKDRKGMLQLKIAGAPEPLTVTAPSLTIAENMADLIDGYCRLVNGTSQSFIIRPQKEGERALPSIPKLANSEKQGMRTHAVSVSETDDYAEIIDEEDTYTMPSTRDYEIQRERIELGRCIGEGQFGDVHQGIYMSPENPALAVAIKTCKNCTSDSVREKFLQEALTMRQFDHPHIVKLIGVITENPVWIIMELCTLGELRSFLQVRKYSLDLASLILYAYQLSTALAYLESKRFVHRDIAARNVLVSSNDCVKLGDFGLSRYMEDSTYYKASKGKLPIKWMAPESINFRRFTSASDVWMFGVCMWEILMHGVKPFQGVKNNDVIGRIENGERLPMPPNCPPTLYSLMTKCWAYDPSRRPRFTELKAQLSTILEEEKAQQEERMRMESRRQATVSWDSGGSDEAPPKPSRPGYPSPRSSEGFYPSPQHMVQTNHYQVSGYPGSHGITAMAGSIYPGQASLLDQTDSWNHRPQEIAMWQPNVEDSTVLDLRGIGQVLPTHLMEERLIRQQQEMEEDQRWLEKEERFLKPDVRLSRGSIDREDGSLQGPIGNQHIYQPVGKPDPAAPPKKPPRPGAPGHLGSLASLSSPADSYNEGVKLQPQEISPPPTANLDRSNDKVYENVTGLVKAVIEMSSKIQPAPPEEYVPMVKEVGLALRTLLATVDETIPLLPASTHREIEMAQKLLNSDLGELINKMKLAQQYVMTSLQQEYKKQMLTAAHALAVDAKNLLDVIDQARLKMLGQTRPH
focal adhesion kinase (FAK), sequence (Q05397 whole entry): as above

`CN(c1ncccc1CCc1ccnc(Nc2ccc(NC(=O)c3cccnc3)cc2)n1)S(C)(=O)=O` [A40] displayed an IC50 in experiment [1] of 0.3 to 3 µM. Same read-out and setting: the value for `O=C1Cc2cc(Nc3ncc(C(F)(F)F)c(CCc4ccccc4)n3)ccc2N1` [A102] was 0.3 to 3 µM; that for `CN(c1ncccc1CCc1ccnc(Nc2ccc3c(c2)CC(=O)N3)n1)S(C)(=O)=O` [A6] was 0.3 to 3 µM. As to `CN(c1ncccc1CCc1ccnc(NCc2ccc(=O)[nH]n2)n1)S(C)(=O)=O` [A24], on FAK, the IC50 lay in the range of 3 to 50 µM. In experiment [1], `CN(c1ncccc1CCc1ccnc(Nc2ccc(N3CCCC3=O)cc2)n1)S(C)(=O)=O` [A39] yielded an IC50 of 0.3 to 3 µM. The same measure, in the same setting: next, `CN(c1ccccc1CCc1ccnc(Nc2ccc(N3C(=O)c4ccccc4C3=O)cc2)n1)S(C)(=O)=O` [A38]: 0.3 to 3 µM; `CN(c1ccccc1CCc1ccnc(Nc2ccc3sc(=O)[nH]c3c2)n1)S(C)(=O)=O` [A30]: 0.3 to 3 µM. Turning to `CN(c1ccccc1CCc1ccnc(Nc2ccc3c(c2)CC(=O)N3)n1)S(C)(=O)=O` [A5], in experiment [1], the IC50 is below 0.3 µM. Turning to `CN(c1ncccc1CCc1ccnc(Nc2ccc3c(c2)n(C)c(=O)n3C)n1)S(C)(=O)=O` [A25], the IC50 in experiment [1] was in the range of 0.3 to 3 µM; against FAK, 3 to 50 µM. Regarding `CN(c1ncccc1CCc1ccnc(Nc2ccc3c(c2)CCC(=O)N3)n1)S(C)(=O)=O` [A7], the IC50 in experiment [1] fell in the range of 0.3 to 3 µM.

The compound `N#CC1(c2cc(F)ccc2CCc2ccnc(Nc3ccc4c(c3)CC(=O)N4)n2)CCC1` [A46] came in with an IC50 in experiment [1] of 0.3 to 3 µM. On the same count and under the same terms, the value for `N#CC1(c2ncccc2CCc2ccnc(Nc3ccc4c(c3)CC(=O)N4)n2)CNC1` [A16, 3-(3-{2-[2-(2-oxo-2,3-dihydro-1H-indol-5-ylamino)pyrimidin-4-yl]ethyl}pyridin-2-yl)azetidine-3-carbonitrile] was 3 to 50 µM.

As to `CN(c1ccccc1CCc1ccnc(Nc2ccc3c(c2)CCC(=O)N3)n1)S(C)(=O)=O` [A2, N-methyl-N-(2-{2-[2-(2-oxo-1,2,3,4-tetrahydroquinolin-6-ylamino)pyrimidin-4-yl]ethyl}phenyl)methanesulfonamide], the IC50 in experiment [1] was below 0.3 µM; against FAK, 3 to 50 µM. For the compound `CN(c1ccccc1CCc1ccnc(Nc2ccc(F)c(C#N)c2)n1)S(C)(=O)=O` [A29], the IC50 in experiment [1] was in the range of 3 to 50 µM. Still for that read-out and setting: next, `N#CCc1ccc(F)cc1CCc1ccnc(Nc2ccc3c(c2)CC(=O)N3)n1` [A11]: 0.3 to 3 µM. Regarding `CS(=O)(=O)c1cccc(CCc2ccnc(Nc3ccc4c(c3)CCC(=O)N4)n2)c1` [A3], in experiment [1], the IC50 lay in the range of 3 to 50 µM. For the compound `CN(c1ccccc1CCc1ccnc(Nc2ccc(N3CCCC3=O)cc2)n1)S(C)(=O)=O` [A35], in experiment [1], the IC50 was in the range of 0.3 to 3 µM. In experiment [1], `CN(c1ncccc1CCc1ccnc(Nc2ccc(N3C(=O)c4ccccc4C3=O)cc2)n1)S(C)(=O)=O` [A43] returned an IC50 of 0.3 to 3 µM. In experiment [1], `N#CC1(c2ccc(F)cc2CCc2ccnc(Nc3ccc4c(c3)CC(=O)N4)n2)CCC1` [A45] gave an IC50 below 0.3 µM. Still for that read-out and setting: the value for `N#CC1(c2ccccc2CCc2ccnc(Nc3ccc4c(c3)CC(=O)N4)n2)CCC1` [A13] was 0.3 to 3 µM; that for `O=C1CCc2cc(Nc3ncc(C(F)(F)F)c(CCc4ccccc4)n3)ccc2N1` [A103] was 0.3 to 3 µM; that for `CN1C(=O)Cc2cc(Nc3nccc(CCc4cccnc4N(C)S(C)(=O)=O)n3)ccc21` [A21] was 0.3 to 3 µM.

`CN(c1ncccc1CCc1ccnc(Nc2ccc3[nH]c(=O)oc3c2)n1)S(C)(=O)=O` [A20]: in experiment [1], the IC50 was in the range of 0.3 to 3 µM. Compound `CN(c1ccccc1CCc1ccnc(Nc2ccc(N3CCCCC3=O)c(C#N)c2)n1)S(C)(=O)=O` [A37] came in with an IC50 against FAK of 0.3 to 3 µM. `Cc1cnc(N(C)S(C)(=O)=O)c(CCc2ccnc(Nc3ccc4c(c3)CC(=O)N4)n2)c1` [A44]: the IC50 in experiment [1] was below 0.3 µM. In the case of `CC(=O)N1CCc2cc(Nc3nccc(CCc4ccccc4N(C)S(C)(=O)=O)n3)ccc21` [A31], the IC50 was below 0.3 µM in experiment [1] and 3 to 50 µM against FAK. The corresponding values for `CN(c1ccccc1CCc1ccnc(Nc2ccc(NC(=O)c3cccnc3)cc2)n1)S(C)(=O)=O` [A34] are below 0.3 µM and 0.3 to 3 µM.

As to `CNC(=O)Cc1ccc(Nc2nccc(CCc3ccccc3N(C)S(C)(=O)=O)n2)cc1` [A32], in experiment [1], the IC50 lay within 0.3 to 3 µM. Still for that read-out and setting: next, `CN(c1ccccc1CCc1ccnc(Nc2ccc(N3CCOCC3=O)cc2)n1)S(C)(=O)=O` [A33]: 0.3 to 3 µM; `CN(c1ccccc1CCc1ccnc(Nc2ccc3[nH]c(=O)oc3c2)n1)S(C)(=O)=O` [A27]: 0.3 to 3 µM; `N#CCc1ccccc1CCc1ccnc(Nc2ccc3c(c2)CC(=O)N3)n1` [A9]: 0.3 to 3 µM.

The compound `CN(c1ccccc1CCc1ccnc(Nc2cccc(C#N)c2)n1)S(C)(=O)=O` [A28] had an IC50 in experiment [1] of 0.3 to 3 µM. Regarding `CN(c1ncccc1CCc1ccnc(Nc2cccc(C#N)c2)n1)S(C)(=O)=O` [A22], the IC50 in experiment [1] fell in the range of 3 to 50 µM. `CN(c1ccccc1CCc1ccnc(Nc2ccc(S(C)(=O)=O)cc2)n1)S(C)(=O)=O` [A1, N-(2-{2-[2-(4-methanesulfonylphenylamino)pyrimidin-4-yl]ethyl}-phenyl)-N-methylmethanesulfonamide] returned an IC50 in experiment [1] of 3 to 50 µM.

In experiment [1], `CN(c1ccccc1CCc1ccnc(Nc2cc(Cl)c(N3CCCC3=O)c(Cl)c2)n1)S(C)(=O)=O` [A36] came in with a half-inhibitory concentration (IC50) of 0.3 to 3 µM.

In experiment [1], `O=C1CCc2cc(Nc3ncc(Br)c(CCc4ccccc4)n3)ccc2N1` [A101] showed an IC50 of 0.3 to 3 µM. Still for that read-out and setting: next, `CN(c1ncccc1CCc1ccnc(Nc2ccc(N3CCOCC3=O)cc2)n1)S(C)(=O)=O` [A41]: 0.3 to 3 µM.

The values are drawn from patent US8906916B2, “Pyrimidine derivatives as FAK inhibitors” (Merck Patent GmbH, priority 2010, dated 2014).
